# Reference: patent US9359348B2, “Cyclopropyl imidazopyridine PDE10 inhibitors” (Merck Sharp & Dohme Corp., priority 2012, dated 2016)
# Target: human PDE10A2 (Homo sapiens (Human), UniProt Q9Y233)
# Assay: PDE10 fluorescence polarization (IMAP FP) inhibition assay
# Format: biochemical
# Conditions: FAM-labeled cAMP 50 nM, room temperature
# Method: The activity of the compounds in accordance with the present invention as PDE10 inhibitors may be readily determined without undue experimentation using a fluorescence polarization (FP) methodology that is well known in the art (Huang, W., et al., J. Biomol Screen, 2002, 7: 215).
# In a typical experiment the PDE10 inhibitory activity of the compounds of the present invention was determined in accordance with the following experimental method. PDE10A2 was amplified from human fetal brain cDNA (Clontech, Mountain View, Calif.) using a forward primer corresponding to nucleotides 56-77 of human PDE10A2 (Accession No. AF127480, Genbank Identifier 4894716), containing a Kozak consensus sequence, and a reverse primer corresponding to nucleotides 2406-2413 of human PDE10A2 (Accession No. AF127480, Genbank Identifier 4894716). Amplification with Easy-A polymerase (Stratagene, La Jolla, Calif.) was 95° C. for 2 minutes followed by thirty three cycles of 95° C. for 40 seconds, 55° C. for 30 seconds, and 72° C. for 2 minutes 48 seconds. Final extension was 72° C. for 7 minutes. The PCR product was TA cloned into pcDNA3.2-TOPO (Invitrogen, Carlsbad, Calif.) according to standard protocol. AD293 cells with 70-80% confluency were transiently transfected with human PDE10A2/pcDNA3.2-TOPO using Lipofectamine 2000 according to manufacturer specifications (Invitrogen, Carlsbad, Calif.). Cells were harvested 48 hours post-transfection and lysed by sonication (setting 3, 10×5 sec pulses) in a buffer containing 20 mM HEPES, 1 mM EDTA and protease inhibitor cocktail (Roche). Lysate was collected by centrifugation at 75,000 xg for 20 minutes. Supernatant containing the cytoplasmic fraction was used for evaluation of PDE10A2 activity. The fluorescence polarization assay for cyclic nucleotide phosphodiesterases was performed using an IMAP® FP kit supplied by Molecular Devices, Sunnyvale, Calif. (product # R8139). IMAP® technology has been applied previously to phosphodiesterase assays (Huang, W., et al., J. Biomol Screen, 2002, 7: 215). Assays were performed at room temperature in 384-well microtiter plates with an incubation volume of 20.2 μL. Solutions of test compounds were prepared in DMSO and serially diluted with DMSO to yield 8 μL of each of 10 solutions differing by 3-fold in concentration, at 32 serial dilutions per plate. 100% inhibition is determined using a known PDE10 inhibitor, which can be any compound that is present at 5,000 times its Ki value in the assay described as follows, such as papaverine (see Siuciak, et al. Neuropharmacology (2006) 51:386-396; Becker, et al. Behav Brain Res (2008) 186(2):155-60; Threlfell, et al., J Pharmacol Exp Ther (2009) 328(3):785-795), 2-{4-[pyridin-4-yl-1-(2,2,2-trifluoroethyl)-1H-pyrazol-3-yl]phenoxymethyl}quinoline succinic acid or 2-[4-(1-methyl-4-pyridin-4-yl-1H-pyrazol-3-yl)-phenoxymethyl]quinoline succinic acid (see Schmidt, et al. J Pharmacol Exp Ther (2008) 325:681-690; Threlfell, et al., J Pharmacol Exp Ther (2009) 328(3): 785-795). 0% of inhibition is determined by using DMSO (1% final concentrations).
# A Labcyte Echo 555 (Labcyte, Sunnyvale, Calif.) is used to dispense 200 nL from each well of the titration plate to the 384 well assay plate. A solution of enzyme (1/1600 dilution from aliquots; sufficient to produce 20% substrate conversion) and a separate solution of FAM-labeled cAMP PDE from Molecular Devices (product # R7506), at a final concentration of 50 nM are made in the assay buffer (10 mM Tris HCl, pH 7.2, 10 mM MgCl2, 0.05% NaN3 0.01% Tween-20, and 1 mM DTT). The enzyme and the substrate are then added to the assay plates in two consecutive additions of 10 μL, and then shaken to mix. The reaction is allowed to proceed at room temperature for 30 minutes. A binding solution is then made from the kit components, comprised of 80% Solution A, 20% Solution B and binding reagent at a volume of 1/600 the total binding solution. […]
# Sequence of human PDE10A2 (Q9Y233 267-1055): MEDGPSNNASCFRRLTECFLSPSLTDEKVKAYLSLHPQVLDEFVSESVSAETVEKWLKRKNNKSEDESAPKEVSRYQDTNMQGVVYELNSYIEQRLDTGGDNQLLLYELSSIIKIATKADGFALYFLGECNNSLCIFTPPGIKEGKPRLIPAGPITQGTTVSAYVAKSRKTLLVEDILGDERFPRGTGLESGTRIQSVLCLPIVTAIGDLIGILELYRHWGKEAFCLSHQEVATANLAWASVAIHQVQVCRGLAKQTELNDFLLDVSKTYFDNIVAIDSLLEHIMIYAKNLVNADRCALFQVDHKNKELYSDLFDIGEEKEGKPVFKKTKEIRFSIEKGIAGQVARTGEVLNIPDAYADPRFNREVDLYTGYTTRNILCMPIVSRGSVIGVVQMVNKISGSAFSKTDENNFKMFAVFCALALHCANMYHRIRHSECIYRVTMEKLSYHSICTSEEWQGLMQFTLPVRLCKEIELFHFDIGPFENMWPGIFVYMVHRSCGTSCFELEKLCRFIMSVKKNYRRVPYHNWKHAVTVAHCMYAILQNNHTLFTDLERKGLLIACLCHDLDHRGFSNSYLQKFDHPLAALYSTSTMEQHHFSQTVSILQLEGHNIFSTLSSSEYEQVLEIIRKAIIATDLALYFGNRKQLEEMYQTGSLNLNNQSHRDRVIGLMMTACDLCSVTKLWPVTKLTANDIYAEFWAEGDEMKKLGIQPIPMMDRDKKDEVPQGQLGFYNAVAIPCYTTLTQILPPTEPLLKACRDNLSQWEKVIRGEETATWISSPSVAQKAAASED
row,SMILES,Ki
1,"Cc1nc([C@@H]2C[C@H]2c2cn3cccc(F)c3n2)cc(-n2nc(C)nc2C)n1 (relative stereo) [Example 6, 2-((trans)-2-(6-(3,5-dimethyl-1H-1,2,4-triazol-1-yl)-2-methylpyrimidin-4-yl)cyclopropyl)-8-fluoroimidazo[1,2-a]pyridine]",> 75 nM
2,"Cc1nc([C@@H]2C[C@H]2c2nc3ccccn3c2C)cc(-n2nc(C)nc2C)n1 (relative stereo) [Example 9, 2-((trans)-2-(6-(3,5-dimethyl-1H-1,2,4-triazol-1-yl)-2-methylpyrimidin-4-yl)cyclopropyl)-3-methylimidazo[1,2-a]pyridine]",2.1 nM
3,"Cc1nc([C@@H]2C[C@H]2c2cn3cccc(C)c3n2)cc(-n2nc(C)nc2C)n1 (relative stereo) [Example 5, 2-((trans)-2-(6-(3,5-dimethyl-1H-1,2,4-triazol-1-yl)-2-methylpyrimidin-4-yl)cyclopropyl)-8-methylimidazo[1,2-a]pyridine]",> 75 nM
4,"Cc1nc([C@@H]2C[C@H]2c2cn3c(C)cccc3n2)cc(-n2nc(C)nc2C)n1 (relative stereo) [Example 2, 2-((trans)-2-(6-(3,5-dimethyl-1H-1,2,4-triazol-1-yl)-2-methylpyrimidin-4-yl)cyclopropyl)-5-methylimidazo[1,2-a]pyridine]",8.3 nM
5,"Cc1nc([C@H]2C[C@@H]2c2cn3ccccc3n2)cc(-n2nc(C)nc2C)n1 (stereo in doubt) [Example 1, 2-((1S,2S)-2-(6-(3,5-dimethyl-1H-1,2,4-triazol-1-yl)-2-methylpyrimidin-4-yl)cyclopropyl)imidazo[1,2-a]pyridine]",5.8 nM
6,"Cc1ccc2nc([C@@H]3C[C@H]3c3cc(-n4nc(C)nc4C)nc(C)n3)cn2c1 (relative stereo) [Example 3, 2-((trans)-2-(6-(3,5-dimethyl-1H-1,2,4-triazol-1-yl)-2-methylpyrimidin-4-yl)cyclopropyl)-6-methylimidazo[1,2-a]pyridine]",24 nM

# More lines, now with the values ahead:
row,Ki,SMILES
1,9 nM,"Cc1nc([C@@H]2C[C@H]2c2nc3ccccn3c2I)cc(-n2nc(C)nc2C)n1 (relative stereo) [Example 8, 2-((trans)-2-(6-(3,5-dimethyl-1H-1,2,4-triazol-1-yl)-2-methylpyrimidin-4-yl)cyclopropyl)-3-iodoimidazo[1,2-a]pyridine]"
2,3.8 nM,"C=Cc1c([C@@H]2C[C@H]2c2cc(-n3nc(C)nc3C)nc(C)n2)nc2ccccn12 (relative stereo) [Example 10, 2-((trans)-2-(6-(3,5-dimethyl-1H-1,2,4-triazol-1-yl)-2-methylpyrimidin-4-yl)cyclopropyl)-3-vinylimidazo[1,2-a]pyridine]"
3,13 nM,"Cc1nc([C@@H]2C[C@H]2c2cn3ccc(F)cc3n2)cc(-n2nc(C)nc2C)n1 (relative stereo) [Example 7, 2-((trans)-2-(6-(3,5-dimethyl-1H-1,2,4-triazol-1-yl)-2-methylpyrimidin-4-yl)cyclopropyl)-7-fluoroimidazo[1,2-a]pyridine]"
4,44 nM,"Cc1ccn2cc([C@@H]3C[C@H]3c3cc(-n4nc(C)nc4C)nc(C)n3)nc2c1 (relative stereo) [Example 4, 2-((trans)-2-(6-(3,5-dimethyl-1H-1,2,4-triazol-1-yl)-2-methylpyrimidin-4-yl)cyclopropyl)-7-methylimidazo[1,2-a]pyridine]"
5,> 75 nM,"Cc1nc([C@@H]2C[C@H]2c2nc3ccccn3c2C#N)cc(-n2nc(C)nc2C)n1 (relative stereo) [Example 11, 2-((trans)-2-(6-(3,5-dimethyl-1H-1,2,4-triazol-1-yl)-2-methylpyrimidin-4-yl)cyclopropyl)imidazo[1,2-a]pyridine-3-carbonitrile]"
